This is an account of results in ChEMBL document CHEMBL2380230, “Potency switch between CHK1 and MK2: discovery of imidazo[1,2-a]pyrazine- and imidazo[1,2-c]pyrimidine-based kinase inhibitors” (Bioorg Med Chem Lett, 2013).

Molecules are shown by their SMILES. Bounds are passed on as bounds.

Test [1] concerns the target T1, Serine/threonine-protein kinase Chk1 (Homo sapiens, UniProt O14757).
T1 sequence (O14757 whole entry): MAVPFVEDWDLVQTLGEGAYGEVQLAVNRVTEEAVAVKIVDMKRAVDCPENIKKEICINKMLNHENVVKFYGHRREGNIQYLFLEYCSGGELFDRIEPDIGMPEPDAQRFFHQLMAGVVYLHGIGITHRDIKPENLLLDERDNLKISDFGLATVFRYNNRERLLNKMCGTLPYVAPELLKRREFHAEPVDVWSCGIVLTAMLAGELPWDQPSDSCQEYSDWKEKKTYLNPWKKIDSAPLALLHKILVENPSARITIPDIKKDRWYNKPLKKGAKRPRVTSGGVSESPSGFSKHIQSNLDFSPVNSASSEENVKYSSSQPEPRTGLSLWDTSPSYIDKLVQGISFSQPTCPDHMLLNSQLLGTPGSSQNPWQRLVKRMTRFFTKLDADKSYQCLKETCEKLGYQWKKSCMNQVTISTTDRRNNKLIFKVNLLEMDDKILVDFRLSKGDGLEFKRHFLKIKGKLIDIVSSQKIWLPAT
The test is described as follows: Inhibition of CHK1 (unknown origin).

Test [2] has as its target T2, MAP kinase-activated protein kinase 2 (Homo sapiens, UniProt P49137). Nature of the test: Inhibition of human recombinant MK2 at 10 uM.
Target sequence in this assay (P49137 whole entry, looked up): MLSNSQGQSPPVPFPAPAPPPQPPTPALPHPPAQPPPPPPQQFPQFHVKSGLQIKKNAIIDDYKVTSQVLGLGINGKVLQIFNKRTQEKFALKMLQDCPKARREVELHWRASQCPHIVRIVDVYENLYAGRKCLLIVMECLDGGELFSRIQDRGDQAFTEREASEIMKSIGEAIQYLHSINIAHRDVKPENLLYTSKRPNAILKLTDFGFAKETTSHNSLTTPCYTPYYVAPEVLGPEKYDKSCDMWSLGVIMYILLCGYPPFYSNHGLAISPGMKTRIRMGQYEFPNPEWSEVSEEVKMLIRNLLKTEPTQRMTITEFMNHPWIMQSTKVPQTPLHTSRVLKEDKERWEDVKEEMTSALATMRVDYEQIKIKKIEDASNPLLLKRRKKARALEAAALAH
Test [3] addresses T2, MAP kinase-activated protein kinase 2. The test is described as follows: Inhibition of human recombinant MK2.
Target sequence in this assay (P49137 whole entry): as the sequence (P49137 whole entry, looked up) above
In test [4] the target is T3, Testis-specific serine/threonine-protein kinase 2 (Homo sapiens, UniProt Q96PF2).
T3 sequence (Q96PF2 whole entry): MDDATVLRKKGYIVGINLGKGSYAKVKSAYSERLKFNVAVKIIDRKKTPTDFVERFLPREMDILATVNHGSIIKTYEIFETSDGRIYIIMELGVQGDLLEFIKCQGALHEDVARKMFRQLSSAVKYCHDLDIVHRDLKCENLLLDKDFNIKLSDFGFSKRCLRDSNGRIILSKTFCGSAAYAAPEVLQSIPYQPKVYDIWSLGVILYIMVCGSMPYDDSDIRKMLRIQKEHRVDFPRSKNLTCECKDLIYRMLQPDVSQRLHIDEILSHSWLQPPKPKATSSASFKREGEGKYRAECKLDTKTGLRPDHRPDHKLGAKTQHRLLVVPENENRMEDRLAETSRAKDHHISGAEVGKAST
The test is described as follows: Inhibition of human TSSK2.

Test [5] has as its target Mitogen-activated protein kinase 1 (Homo sapiens, UniProt P28482). Nature of the test: Inhibition of human ERK2.
The target in test [6] is Tyrosine-protein kinase Lck (Homo sapiens, UniProt P06239). Nature of the test: Inhibition of human LCK.
For test [7], the target named is Casein kinase I isoform delta (Homo sapiens, UniProt P48730). Nature of the test: Inhibition of human CSNK1D.
Test [8] concerns the target Hepatocyte growth factor receptor (Homo sapiens, UniProt P08581). The test is described as follows: Inhibition of human MET.
Test [9] has as its target Insulin-like growth factor 1 receptor (Homo sapiens, UniProt P08069). Nature of the test: Inhibition of human IGF1R.
Test [10] deals with RAC-alpha serine/threonine-protein kinase (Homo sapiens, UniProt P31749). The test is described as follows: Inhibition of human AKT1.
The target in test [11] is T4, Inhibitor of nuclear factor kappa-B kinase subunit beta (Homo sapiens, UniProt O14920).
T4 sequence (O14920 whole entry): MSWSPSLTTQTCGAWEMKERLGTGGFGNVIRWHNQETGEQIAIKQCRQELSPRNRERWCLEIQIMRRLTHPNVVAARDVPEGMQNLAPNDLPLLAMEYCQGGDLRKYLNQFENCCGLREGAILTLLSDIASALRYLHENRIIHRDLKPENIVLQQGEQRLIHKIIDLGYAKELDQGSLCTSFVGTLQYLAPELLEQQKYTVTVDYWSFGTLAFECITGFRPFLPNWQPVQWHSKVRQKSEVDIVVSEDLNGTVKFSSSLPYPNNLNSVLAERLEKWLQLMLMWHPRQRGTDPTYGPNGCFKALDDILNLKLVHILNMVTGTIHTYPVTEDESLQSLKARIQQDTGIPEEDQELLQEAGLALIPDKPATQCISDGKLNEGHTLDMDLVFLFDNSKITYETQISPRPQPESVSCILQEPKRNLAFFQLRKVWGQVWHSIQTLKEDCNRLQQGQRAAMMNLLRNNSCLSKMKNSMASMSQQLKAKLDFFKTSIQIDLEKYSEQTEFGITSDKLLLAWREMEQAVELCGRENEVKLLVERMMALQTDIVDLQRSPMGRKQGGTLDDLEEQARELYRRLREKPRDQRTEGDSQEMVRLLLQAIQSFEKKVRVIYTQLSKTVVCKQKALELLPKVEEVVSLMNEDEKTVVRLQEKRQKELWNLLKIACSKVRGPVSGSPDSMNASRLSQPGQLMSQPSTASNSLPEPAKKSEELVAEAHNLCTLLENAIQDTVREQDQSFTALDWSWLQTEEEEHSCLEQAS
The test is described as follows: Inhibition of human IKKB.

For test [12], the target named is Tyrosine-protein kinase JAK2 (Homo sapiens, UniProt O60674). Nature of the test: Inhibition of human JAK2.
Chain of Tyrosine-protein kinase JAK2 (O60674 whole entry): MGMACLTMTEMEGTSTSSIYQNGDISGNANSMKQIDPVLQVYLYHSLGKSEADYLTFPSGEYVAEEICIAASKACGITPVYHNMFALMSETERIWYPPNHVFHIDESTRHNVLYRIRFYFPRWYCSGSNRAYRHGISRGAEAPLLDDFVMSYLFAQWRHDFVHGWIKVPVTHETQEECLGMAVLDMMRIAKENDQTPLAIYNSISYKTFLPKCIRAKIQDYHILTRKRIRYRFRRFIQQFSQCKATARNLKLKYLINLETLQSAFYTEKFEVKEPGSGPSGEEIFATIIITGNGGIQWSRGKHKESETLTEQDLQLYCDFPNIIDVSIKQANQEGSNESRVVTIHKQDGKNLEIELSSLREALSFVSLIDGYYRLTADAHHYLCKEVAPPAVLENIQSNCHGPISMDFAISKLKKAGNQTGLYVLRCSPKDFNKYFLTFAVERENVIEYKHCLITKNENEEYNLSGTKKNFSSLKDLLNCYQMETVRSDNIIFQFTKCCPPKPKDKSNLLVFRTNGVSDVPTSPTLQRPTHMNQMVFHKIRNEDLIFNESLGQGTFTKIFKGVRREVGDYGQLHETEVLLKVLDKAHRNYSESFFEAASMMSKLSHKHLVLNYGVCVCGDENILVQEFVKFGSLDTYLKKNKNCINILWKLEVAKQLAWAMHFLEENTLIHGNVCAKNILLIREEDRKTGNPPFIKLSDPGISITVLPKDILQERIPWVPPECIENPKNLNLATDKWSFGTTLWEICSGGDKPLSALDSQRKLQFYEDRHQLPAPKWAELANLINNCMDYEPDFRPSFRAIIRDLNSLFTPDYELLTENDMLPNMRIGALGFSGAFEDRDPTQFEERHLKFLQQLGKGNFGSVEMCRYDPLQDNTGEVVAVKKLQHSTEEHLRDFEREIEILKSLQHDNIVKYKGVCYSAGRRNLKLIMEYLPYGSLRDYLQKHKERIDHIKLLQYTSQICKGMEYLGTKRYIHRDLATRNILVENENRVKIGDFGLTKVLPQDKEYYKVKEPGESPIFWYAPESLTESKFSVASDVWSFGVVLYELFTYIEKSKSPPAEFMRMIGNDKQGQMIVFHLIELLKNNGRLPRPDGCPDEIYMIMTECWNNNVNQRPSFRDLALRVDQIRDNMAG

Chain of Mitogen-activated protein kinase 1 (P28482 whole entry): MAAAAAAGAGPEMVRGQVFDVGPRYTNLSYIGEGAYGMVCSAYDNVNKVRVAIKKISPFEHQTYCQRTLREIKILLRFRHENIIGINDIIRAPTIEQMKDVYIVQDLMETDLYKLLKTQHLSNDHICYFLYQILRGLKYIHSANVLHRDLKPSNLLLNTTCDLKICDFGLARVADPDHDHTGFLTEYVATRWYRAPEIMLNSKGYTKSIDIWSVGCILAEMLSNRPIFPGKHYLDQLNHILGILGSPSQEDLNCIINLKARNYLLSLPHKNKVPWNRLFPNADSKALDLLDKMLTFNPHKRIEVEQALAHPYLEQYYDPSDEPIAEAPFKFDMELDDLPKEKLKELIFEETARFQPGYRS
Chain of Casein kinase I isoform delta (P48730 whole entry, canonical isoform): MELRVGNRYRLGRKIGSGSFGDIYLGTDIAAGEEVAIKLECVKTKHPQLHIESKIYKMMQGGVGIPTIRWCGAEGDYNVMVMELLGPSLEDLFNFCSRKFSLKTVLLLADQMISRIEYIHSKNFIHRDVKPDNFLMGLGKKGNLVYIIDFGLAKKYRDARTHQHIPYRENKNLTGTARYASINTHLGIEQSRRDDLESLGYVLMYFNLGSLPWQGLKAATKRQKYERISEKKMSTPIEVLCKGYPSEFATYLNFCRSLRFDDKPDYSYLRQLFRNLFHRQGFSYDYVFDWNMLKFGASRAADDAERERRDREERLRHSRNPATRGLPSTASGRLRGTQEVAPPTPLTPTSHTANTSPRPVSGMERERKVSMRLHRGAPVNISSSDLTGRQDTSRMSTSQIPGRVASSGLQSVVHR
Chain of Hepatocyte growth factor receptor (P08581 whole entry): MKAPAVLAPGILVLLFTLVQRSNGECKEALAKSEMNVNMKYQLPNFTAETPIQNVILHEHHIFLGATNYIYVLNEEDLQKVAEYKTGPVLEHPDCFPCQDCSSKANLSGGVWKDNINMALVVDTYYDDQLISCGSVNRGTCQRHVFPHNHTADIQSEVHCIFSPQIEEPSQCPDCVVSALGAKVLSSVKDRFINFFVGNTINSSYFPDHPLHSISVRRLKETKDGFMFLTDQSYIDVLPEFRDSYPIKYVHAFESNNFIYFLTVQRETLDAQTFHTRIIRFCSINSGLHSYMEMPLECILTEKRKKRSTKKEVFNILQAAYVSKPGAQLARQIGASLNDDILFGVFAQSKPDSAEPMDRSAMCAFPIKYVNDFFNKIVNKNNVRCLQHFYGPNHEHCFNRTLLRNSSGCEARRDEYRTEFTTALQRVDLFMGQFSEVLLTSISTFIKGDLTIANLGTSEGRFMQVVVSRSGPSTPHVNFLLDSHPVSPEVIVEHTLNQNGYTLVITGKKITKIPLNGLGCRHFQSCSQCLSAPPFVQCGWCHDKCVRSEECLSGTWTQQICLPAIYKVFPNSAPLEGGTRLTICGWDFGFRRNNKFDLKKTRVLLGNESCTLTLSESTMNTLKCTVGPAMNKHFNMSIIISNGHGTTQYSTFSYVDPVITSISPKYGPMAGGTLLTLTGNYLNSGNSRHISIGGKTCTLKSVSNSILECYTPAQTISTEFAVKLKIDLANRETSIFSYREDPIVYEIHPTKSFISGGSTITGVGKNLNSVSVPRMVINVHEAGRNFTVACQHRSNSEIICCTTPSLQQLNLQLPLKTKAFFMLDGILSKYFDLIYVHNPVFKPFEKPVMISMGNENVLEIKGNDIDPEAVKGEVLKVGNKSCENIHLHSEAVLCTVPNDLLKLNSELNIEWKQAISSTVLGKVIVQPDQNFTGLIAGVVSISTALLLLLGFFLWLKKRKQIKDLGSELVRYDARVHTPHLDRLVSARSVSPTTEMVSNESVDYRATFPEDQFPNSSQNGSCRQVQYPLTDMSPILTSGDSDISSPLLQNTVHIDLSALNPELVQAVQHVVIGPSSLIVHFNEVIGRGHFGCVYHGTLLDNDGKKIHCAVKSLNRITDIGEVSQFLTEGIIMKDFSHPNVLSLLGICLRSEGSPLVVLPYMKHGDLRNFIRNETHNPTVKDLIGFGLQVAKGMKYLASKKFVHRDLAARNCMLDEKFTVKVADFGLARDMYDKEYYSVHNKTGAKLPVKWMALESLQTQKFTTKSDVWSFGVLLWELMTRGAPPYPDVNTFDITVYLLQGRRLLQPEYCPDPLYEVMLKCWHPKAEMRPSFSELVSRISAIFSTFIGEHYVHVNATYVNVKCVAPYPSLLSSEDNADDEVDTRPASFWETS
Chain of RAC-alpha serine/threonine-protein kinase (P31749 whole entry): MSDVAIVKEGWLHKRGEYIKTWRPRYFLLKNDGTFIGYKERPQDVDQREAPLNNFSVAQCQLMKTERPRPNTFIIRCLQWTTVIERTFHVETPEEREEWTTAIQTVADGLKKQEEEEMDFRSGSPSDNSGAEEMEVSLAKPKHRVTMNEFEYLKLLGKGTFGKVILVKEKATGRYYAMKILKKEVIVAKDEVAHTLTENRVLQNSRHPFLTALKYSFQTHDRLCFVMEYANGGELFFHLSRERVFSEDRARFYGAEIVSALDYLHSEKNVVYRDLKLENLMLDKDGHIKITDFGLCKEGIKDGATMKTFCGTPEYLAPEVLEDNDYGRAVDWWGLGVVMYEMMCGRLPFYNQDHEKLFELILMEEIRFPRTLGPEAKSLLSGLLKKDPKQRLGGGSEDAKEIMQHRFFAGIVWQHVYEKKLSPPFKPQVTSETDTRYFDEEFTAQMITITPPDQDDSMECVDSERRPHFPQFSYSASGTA
Chain of Tyrosine-protein kinase Lck (P06239 whole entry, canonical isoform): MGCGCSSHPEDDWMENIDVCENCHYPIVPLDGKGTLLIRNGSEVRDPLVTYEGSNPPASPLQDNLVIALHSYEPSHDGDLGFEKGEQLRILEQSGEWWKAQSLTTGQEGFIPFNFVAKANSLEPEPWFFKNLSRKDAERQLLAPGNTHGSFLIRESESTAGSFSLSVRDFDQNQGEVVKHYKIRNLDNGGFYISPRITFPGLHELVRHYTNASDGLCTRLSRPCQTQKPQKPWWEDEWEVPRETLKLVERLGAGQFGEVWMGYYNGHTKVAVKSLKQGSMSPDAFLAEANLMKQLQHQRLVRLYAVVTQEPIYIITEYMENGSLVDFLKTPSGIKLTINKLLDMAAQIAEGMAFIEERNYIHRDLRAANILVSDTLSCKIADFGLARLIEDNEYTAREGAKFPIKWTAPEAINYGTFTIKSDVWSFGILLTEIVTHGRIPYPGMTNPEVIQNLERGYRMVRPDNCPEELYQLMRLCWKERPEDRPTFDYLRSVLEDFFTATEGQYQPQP

As a reminder, the IC50 is the concentration needed to halve the response being measured. The term inhibition denotes the change of the read-out against control, counted positive when it falls. Molecule `CN1CCC(Nc2ncc(C(N)=O)c3nc(-c4ccc(Cl)cc4)cn23)CC1` displayed an IC50 in test [1] of 50000 nM. Besides, in test [2], the inhibition came to 69%.

Take `NC(=O)c1cnc(N[C@H]2CCCNC2)n2cc(-c3ccc(Cl)cc3)nc12`: the inhibition in test [2] amounted to 67%.

`NC(=O)c1ncc(N[C@H]2CC[C@H](N)CC2)c2nc(-c3ccc(Cl)cc3)cn12`: in test [3], the IC50 worked out at 1980 nM.

Consider `NC(=O)c1cnc(N[C@@H]2CCNC2)n2cc(-c3ccc(Cl)cc3)nc12`, for which the IC50 in test [1] was determined as 42100 nM. Further, the inhibition in test [2] is 56%.

With `NC(=O)c1cnc(NCC2CCCNC2)n2cc(-c3ccc(Cl)cc3)nc12` (stereo not given), the IC50 in [1] is 50000 nM. For the same molecule, the inhibition in [2] was 61%.

Take `NC(=O)c1cnc(N[C@H]2CC[C@H](N)CC2)n2cc(-c3ccc(Cl)cc3)nc12`: the IC50 in [3] is 4000 nM; in test [1], 50000 nM.

Turning to `NC(=O)c1cnc(N[C@H]2CCCNC2)c2nc(-c3ccc4ccccc4c3)cn12`, the IC50 in test [3] was 910 nM; in [1], 23 nM.

In the case of `NCCCNc1ncc(C(N)=O)n2cc(-c3ccc(Cl)cc3)nc12`, the IC50 in test [3] is 4090 nM; in test [1], 290 nM.

With `NC(=O)c1cnc(N[C@H]2CC[C@H](N)CC2)c2nc(-c3ccc(Cl)cc3)cn12`, the IC50 in test [4] is 12 µM; in test [5], over 30 µM; in [6], 1000 nM; in test [7] it was 12 µM; in [8], over 30 µM; in [9] it was 12 µM. The IC50 is over 30 µM in test [10], over 30 µM in test [11] and 13 µM in test [12].

With `NC(=O)c1cnc(Nc2cccnc2)c2nc(-c3ccc(Cl)cc3)cn12`, the IC50 in test [3] was 10000 nM.

`NC(=O)c1cnc(N[C@H]2CC[C@H](N)CC2)c2nc(-c3ccc(Cl)c(Cl)c3)cn12`: the IC50 came out at 820 nM in test [3] and 5070 nM in test [1].

Take `CN[C@H]1CC[C@H](Nc2ncc(C(N)=O)n3cc(-c4ccc(Cl)cc4)nc23)CC1`: the results for the IC50 in test [3] and in [1] were 400 nM and 890 nM, respectively.

As for `NC(=O)c1cnc(N[C@H]2CCCNC2)c2nc(-c3ccc(F)cc3)cn12`, the figures for the half-maximal inhibitory concentration (IC50) in test [3] and in test [1] were 910 nM and 27 nM, respectively.

On to `NC(=O)c1cnc(N[C@H]2CC[C@@H](N)CC2)c2nc(-c3ccc(Cl)cc3)cn12`, for which the IC50 in test [3] was found to be 1900 nM.

As to `NC(=O)c1ncc(N[C@H]2CCCNC2)c2nc(-c3ccc(Cl)cc3)cn12`, the results for the IC50 in test [3] and in test [1] were 840 nM and 18 nM, respectively.

Turning to `NC(=O)c1cnc(NC2CCNCC2)c2nc(-c3ccc(Cl)cc3)cn12`, the concentration for half-maximal inhibition (IC50) in test [3] turned out to be 4150 nM; in test [1], 690 nM.
